# Results: ChEMBL document CHEMBL3734721 (J Med Chem, 2015)
# Columns and labels:
# [1] = biological target: Muscarinic acetylcholine receptor M3 (Homo sapiens, UniProt P20309); test: Agonist activity at human wild-type M3 receptor expressed in CHO-K1 cells assessed as calcium level by FDSS assay; assay type: functional, cell-based
# [2] = biological target: 5-hydroxytryptamine receptor 7 (Homo sapiens, UniProt P34969); test: Agonist activity at human wild-type 5-HT7 receptor expressed in HEK cells assessed as cAMP by HTRF assay; assay type: functional, cell-based, HEK293
# Sequence of 5-hydroxytryptamine receptor 7 (P34969 whole entry): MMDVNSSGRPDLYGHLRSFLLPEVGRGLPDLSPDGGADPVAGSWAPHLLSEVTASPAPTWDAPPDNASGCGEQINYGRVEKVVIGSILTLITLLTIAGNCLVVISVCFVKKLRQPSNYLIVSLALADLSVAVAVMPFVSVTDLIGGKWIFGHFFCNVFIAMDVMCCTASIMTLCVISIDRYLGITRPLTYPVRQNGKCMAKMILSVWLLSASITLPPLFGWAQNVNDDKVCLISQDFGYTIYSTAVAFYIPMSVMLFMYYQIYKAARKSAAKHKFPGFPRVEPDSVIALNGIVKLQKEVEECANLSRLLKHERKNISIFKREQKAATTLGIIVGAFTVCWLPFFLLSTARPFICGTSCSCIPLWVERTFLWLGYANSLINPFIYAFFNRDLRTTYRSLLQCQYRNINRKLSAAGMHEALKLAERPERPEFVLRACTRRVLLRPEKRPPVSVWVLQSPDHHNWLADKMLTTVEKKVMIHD
# [3] = Chemical stability of compound in DMSO assessed as compound remaining at 10 mg/ml after 2 days at room temperature; assay type: physicochemical; settings: read-out: Stability
# [4] = biological target: T1, Type-1 angiotensin II receptor (Homo sapiens, UniProt P30556); test: Agonist activity at human wild-type AGTR1 receptor expressed in CHO-K1 cells assessed as calcium level by FDSS assay; assay type: functional, cell-based
# T1 sequence (P30556 whole entry): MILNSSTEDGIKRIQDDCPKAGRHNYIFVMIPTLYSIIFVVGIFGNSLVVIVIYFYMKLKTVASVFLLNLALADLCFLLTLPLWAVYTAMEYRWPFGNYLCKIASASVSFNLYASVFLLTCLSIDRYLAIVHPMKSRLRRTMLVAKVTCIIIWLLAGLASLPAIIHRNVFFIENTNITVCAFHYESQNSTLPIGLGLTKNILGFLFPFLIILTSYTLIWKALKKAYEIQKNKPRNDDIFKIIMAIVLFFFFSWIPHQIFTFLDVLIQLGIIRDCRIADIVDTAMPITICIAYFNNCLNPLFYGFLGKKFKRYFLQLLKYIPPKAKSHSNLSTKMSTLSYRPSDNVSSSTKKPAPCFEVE
# [5] = biological target: 5-hydroxytryptamine receptor 2B (Homo sapiens, UniProt P41595); test: Antagonist activity at human 5-HT2B receptor expressed in CHO-K1 cells assessed as seretonin-induced calcium level by FDSS assay; assay type: functional, cell-based
# Sequence of 5-hydroxytryptamine receptor 2B (P41595 whole entry): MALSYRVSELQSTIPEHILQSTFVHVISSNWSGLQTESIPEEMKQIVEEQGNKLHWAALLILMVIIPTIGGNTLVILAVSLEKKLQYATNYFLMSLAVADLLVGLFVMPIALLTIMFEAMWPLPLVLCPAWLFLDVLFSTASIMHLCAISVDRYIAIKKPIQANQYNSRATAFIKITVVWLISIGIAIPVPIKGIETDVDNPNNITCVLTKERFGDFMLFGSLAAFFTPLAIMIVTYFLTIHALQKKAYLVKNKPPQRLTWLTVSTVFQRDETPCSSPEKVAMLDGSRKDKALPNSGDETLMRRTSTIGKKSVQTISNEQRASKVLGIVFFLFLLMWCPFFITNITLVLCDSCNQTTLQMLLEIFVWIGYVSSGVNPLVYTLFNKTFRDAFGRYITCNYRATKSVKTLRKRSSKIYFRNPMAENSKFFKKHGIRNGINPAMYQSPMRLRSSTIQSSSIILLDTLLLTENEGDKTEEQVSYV
# [6] = Kinetic solubility of compound in phosphate buffer at pH 7.4 for 4 hrs by UPLC/UV analysis; assay type: physicochemical; settings: read-out: Kinetic_solubility
# [7] = biological target: 5-hydroxytryptamine receptor 1B (Homo sapiens, UniProt P28222); test: Agonist activity at human 5-HT1B receptor expressed in CHO-K1 cells assessed as cAMP level by HTRF assay; assay type: functional, cell-based
# Sequence of 5-hydroxytryptamine receptor 1B (P28222 whole entry): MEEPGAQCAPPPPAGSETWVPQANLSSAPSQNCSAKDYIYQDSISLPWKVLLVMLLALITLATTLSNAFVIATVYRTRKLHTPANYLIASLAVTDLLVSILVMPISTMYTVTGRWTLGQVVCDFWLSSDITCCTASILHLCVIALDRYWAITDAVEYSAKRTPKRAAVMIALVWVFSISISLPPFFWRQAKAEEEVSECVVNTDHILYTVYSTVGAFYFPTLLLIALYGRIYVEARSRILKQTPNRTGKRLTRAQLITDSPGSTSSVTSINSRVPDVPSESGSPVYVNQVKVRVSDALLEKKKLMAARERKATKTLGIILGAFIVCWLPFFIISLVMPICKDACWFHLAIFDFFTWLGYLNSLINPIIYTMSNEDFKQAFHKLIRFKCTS
# [8] = Chemical stability of compound in 0.1N NaOH assessed as compound remaining at 10 mg/ml after 1 day; assay type: physicochemical; settings: read-out: Stability
# Endothelin-1 receptor = biological target: T2, Endothelin-1 receptor (Homo sapiens, UniProt P25101); test: Antagonist activity at human wild-type ETA receptor expressed in CHO-K1 cells assessed as endothelin-1-induced calcium by HTRF assay; assay type: functional, cell-based
# T2 sequence (P25101 whole entry): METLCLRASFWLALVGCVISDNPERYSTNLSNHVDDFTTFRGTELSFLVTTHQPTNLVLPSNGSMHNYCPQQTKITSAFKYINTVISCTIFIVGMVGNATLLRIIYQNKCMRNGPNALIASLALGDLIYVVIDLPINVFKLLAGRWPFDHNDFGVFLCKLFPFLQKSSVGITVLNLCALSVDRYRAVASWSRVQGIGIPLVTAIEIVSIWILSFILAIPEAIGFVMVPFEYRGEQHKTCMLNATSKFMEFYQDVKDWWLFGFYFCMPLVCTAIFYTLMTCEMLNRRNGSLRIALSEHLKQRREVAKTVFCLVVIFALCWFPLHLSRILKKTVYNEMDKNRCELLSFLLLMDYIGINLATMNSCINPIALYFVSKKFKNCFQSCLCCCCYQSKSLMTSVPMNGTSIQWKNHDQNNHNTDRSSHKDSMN
# [9] = biological target: T3, 5-hydroxytryptamine receptor 2C (Homo sapiens, UniProt P28335); test: Antagonist activity at human 5-HT2C receptor expressed in CHO-K1 cells assessed as seretonin-induced calcium level by FDSS assay; assay type: functional, cell-based
# T3 sequence (P28335 whole entry): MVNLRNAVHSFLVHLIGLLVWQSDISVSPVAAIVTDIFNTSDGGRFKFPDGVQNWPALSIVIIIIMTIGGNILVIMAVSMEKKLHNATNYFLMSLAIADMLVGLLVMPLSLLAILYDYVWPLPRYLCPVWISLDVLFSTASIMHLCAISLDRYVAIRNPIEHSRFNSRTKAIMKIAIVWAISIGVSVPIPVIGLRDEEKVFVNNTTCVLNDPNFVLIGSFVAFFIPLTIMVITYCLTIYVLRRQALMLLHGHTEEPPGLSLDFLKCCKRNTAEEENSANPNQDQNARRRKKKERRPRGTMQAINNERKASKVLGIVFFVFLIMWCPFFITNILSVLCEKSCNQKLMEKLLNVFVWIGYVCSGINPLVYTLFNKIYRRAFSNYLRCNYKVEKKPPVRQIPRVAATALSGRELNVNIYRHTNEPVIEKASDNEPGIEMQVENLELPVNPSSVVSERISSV
# [10] = Fraction unbound in mouse plasma at 5 uM after 4.5 hrs by LC-MS/MS analysis; assay type: ADME, cell-free
# [11] = Log D of compound at pH 7.4 by chromotography; assay type: physicochemical; settings: buffer
# [12] = biological target: 5-hydroxytryptamine receptor 6 (Homo sapiens, UniProt P50406); test: Agonist activity at human 5-HT6 receptor expressed in 1321N1 cells assessed as cAMP by HTRF assay; assay type: functional, cell-based
# Sequence of 5-hydroxytryptamine receptor 6 (P50406 whole entry): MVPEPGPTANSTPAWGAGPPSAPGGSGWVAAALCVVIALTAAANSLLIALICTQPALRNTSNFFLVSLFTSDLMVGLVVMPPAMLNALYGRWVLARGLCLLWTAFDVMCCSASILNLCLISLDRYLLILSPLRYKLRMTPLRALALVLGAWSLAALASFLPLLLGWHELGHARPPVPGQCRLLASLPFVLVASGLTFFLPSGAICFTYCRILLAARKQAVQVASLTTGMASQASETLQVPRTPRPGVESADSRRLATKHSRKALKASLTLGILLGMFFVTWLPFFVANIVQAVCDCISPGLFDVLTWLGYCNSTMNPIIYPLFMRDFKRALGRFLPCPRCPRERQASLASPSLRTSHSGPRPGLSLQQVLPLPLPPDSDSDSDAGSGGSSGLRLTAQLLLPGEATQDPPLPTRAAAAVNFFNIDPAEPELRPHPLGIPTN
# [13] = biological target: Kappa-type opioid receptor (Homo sapiens, UniProt P41145); test: Antagonist activity at human wild-type opioid-kappa 1 receptor expressed in CHO-K1 cells assessed as U50488-induced cAMP by HTRF assay; assay type: functional, cell-based
# Sequence of Kappa-type opioid receptor (P41145 whole entry): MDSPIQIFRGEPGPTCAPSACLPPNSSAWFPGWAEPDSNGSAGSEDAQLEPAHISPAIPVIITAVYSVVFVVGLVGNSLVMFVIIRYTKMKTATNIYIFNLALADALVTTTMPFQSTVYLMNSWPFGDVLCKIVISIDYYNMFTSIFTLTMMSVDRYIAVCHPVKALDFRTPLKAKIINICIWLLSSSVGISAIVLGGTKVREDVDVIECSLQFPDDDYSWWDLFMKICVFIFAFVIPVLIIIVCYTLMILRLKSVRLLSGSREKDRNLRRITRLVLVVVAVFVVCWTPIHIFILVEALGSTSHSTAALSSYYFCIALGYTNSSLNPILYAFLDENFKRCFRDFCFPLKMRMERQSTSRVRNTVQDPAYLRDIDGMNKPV
# [14] = Chemical stability of compound in buffer at pH 7.4 assessed as compound remaining at 10 mg/ml after 2 days; assay type: physicochemical; settings: read-out: Stability
# Cytochrome P450 2C8 = biological target: T4, Cytochrome P450 2C8 (Homo sapiens, UniProt P10632); test: Inhibition of human CYP2C8 by LC-MS analysis; assay type: ADME
# T4 sequence (P10632 whole entry): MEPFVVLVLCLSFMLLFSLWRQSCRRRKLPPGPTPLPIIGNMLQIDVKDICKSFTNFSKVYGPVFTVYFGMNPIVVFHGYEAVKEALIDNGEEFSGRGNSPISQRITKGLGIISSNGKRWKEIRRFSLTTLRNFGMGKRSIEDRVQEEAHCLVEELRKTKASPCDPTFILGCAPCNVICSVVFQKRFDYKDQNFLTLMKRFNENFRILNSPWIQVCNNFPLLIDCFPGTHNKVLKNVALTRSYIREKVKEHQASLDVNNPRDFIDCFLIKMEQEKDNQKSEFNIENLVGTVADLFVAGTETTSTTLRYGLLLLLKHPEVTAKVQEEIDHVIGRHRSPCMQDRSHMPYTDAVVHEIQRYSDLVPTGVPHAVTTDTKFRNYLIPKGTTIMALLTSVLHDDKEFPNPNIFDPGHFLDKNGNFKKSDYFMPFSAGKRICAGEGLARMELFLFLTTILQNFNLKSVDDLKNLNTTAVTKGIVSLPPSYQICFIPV
# Cytochrome P450 3A4 = Cytochrome P450 3A4 (Homo sapiens, UniProt P08684); test: Inhibition of human CYP3A4 by LC-MS analysis; assay type: ADME
# Sequence of Cytochrome P450 3A4 (P08684 whole entry): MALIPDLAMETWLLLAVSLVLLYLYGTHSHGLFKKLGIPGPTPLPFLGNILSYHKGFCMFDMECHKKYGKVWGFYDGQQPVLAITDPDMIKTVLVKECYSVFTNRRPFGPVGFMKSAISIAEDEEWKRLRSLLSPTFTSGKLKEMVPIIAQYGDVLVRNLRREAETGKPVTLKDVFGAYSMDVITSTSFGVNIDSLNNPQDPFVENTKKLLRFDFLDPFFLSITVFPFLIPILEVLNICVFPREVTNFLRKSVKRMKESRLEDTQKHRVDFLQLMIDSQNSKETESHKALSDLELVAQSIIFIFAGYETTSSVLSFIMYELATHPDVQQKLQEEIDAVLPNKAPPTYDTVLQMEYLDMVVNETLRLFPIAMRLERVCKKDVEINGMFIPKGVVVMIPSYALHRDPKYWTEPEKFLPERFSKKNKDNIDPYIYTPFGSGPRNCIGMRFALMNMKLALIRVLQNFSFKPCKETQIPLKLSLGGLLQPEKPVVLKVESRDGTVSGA
# Sequence of Muscarinic acetylcholine receptor M3 (P20309 whole entry): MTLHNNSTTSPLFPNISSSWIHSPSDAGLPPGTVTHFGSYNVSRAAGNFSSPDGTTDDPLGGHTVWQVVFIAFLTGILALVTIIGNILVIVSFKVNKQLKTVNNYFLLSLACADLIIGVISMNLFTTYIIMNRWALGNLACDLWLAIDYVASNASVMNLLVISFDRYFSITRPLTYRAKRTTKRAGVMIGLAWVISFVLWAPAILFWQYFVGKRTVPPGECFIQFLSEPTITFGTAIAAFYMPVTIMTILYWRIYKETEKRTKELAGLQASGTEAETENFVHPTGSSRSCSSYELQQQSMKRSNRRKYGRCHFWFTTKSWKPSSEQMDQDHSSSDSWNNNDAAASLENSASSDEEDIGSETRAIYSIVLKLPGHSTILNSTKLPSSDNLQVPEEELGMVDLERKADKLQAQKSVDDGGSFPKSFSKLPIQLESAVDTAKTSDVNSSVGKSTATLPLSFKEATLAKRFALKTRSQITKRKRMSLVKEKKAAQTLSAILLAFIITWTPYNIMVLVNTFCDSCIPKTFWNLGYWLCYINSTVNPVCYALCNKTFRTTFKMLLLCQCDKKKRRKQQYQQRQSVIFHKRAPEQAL
EC50 [1],EC50 [2],"remaining at 48 h, 10 mg/ml [3]",EC50 [4],IC50 [5],solubility kinetic at 4 h [6],EC50 [7],"remaining at 24 h, 10 mg/ml [8]",IC50 (Endothelin-1 receptor),IC50 [9],"fraction unbound at 4.5 h, 5 µM [10]",chromatographic logD [11],EC50 [12],IC50 [13],"remaining at 48 h, 10 mg/ml [14]",IC50 (Cytochrome P450 2C8),IC50 (Cytochrome P450 3A4),SMILES
> 5.01 µM,> 5.01 µM,96%,> 5.01 µM,> 5.01 µM,647 µM,> 5.01 µM,89%,> 5.01 µM,> 5.01 µM,0.21,1.81,> 5.01 µM,> 5.01 µM,96%,> 10 µM,> 10 µM,CB1C=Cc2c(cccc2OCC(O)CN(C)C)N1 (centres undefined)
> 5.01 µM,> 5.01 µM,96%,> 5.01 µM,> 5.01 µM,699 µM,> 5.01 µM,88%,> 5.01 µM,> 5.01 µM,0.074,2.31,> 5.01 µM,> 5.01 µM,91%,> 10 µM,> 10 µM,CB1C=Cc2cccc(OCC(O)CNC(C)C)c2N1 (centres undefined)
